ChEMBL document CHEMBL1759870, “Identification, structural properties and chelating capacity of miltipolone as a broad-spectrum inhibitor to cancer cells” (Eur J Med Chem, 2011)
Calls of active or inactive are those of the source. No cut-off for these calls is given here.

Experiments:
[1] = tested on: MCF7; experiment: Antiproliferative activity against human MCF7 cells at 2 uM after 96 hrs by MTT assay in presence of 1 uM of ferrous ion; format: functional, cell-based
[2] = tested on: Jurkat; experiment: Antiproliferative activity against human Jurkat cells at 2 uM after 96 hrs by MTT assay in presence of 1 uM of ferrous ion; format: functional, cell-based
[3] = tested on: A-375; experiment: Antiproliferative activity against human A375 cells at 2 uM after 96 hrs by MTT assay in presence of 1 uM of ferrous ion; format: functional, cell-based
[4] = tested on: NCI-N87; experiment: Antiproliferative activity against human NCI-N87 cells at 2 uM after 96 hrs by MTT assay in presence of 1 uM of ferrous ion; format: functional, cell-based
[5] = tested on: PANC-1; experiment: Antiproliferative activity against human PANC1 cells at 2 uM after 96 hrs by MTT assay in presence of 1 uM of ferrous ion; format: functional, cell-based
[6] = tested on: HT-1080; experiment: Antiproliferative activity against human HT1080 cells at 2 uM after 96 hrs by MTT assay in presence of 1 uM of ferrous ion; format: functional, cell-based
[7] = tested on: HeLa; experiment: Antiproliferative activity against human HeLa cells at 2 uM after 96 hrs by MTT assay in presence of 1 uM of ferrous ion; format: functional, cell-based
[8] = tested on: HepG2; experiment: Antiproliferative activity against human HepG2 cells at 2 uM after 96 hrs by MTT assay in presence of 1 uM of ferrous ion; format: functional, cell-based
[9] = tested on: A549; experiment: Antiproliferative activity against human A549 cells at 2 uM after 96 hrs by MTT assay in presence of 1 uM of ferrous ion; format: functional, cell-based
[10] = tested on: HUVEC; experiment: Antiproliferative activity against human HUVEC cells after 96 hrs by MTT assay; format: cell-based
[11] = tested on: A549; experiment: Antiproliferative activity against human A549 cells after 96 hrs by MTT assay; format: functional, cell-based; conditions: A549, 96 h
[12] = tested on: Bel-7402; experiment: Antiproliferative activity against human Bel7402 cells after 96 hrs by MTT assay; format: functional, cell-based; conditions: Bel-7402, 96 h
[13] = tested on: HepG2; experiment: Antiproliferative activity against human HepG2 cells after 96 hrs by MTT assay; format: functional, cell-based; conditions: HepG2, 96 h
[14] = tested on: HeLa; experiment: Antiproliferative activity against human HeLa cells after 96 hrs by MTT assay; format: functional, cell-based
[15] = tested on: MCF7; experiment: Antiproliferative activity against human MCF7 cells after 96 hrs by MTT assay; format: functional, cell-based; conditions: MCF7, 96 h
[16] = tested on: Jurkat; experiment: Antiproliferative activity against human Jurkat cells after 96 hrs by MTT assay; format: functional, cell-based
[17] = tested on: HT-1080; experiment: Antiproliferative activity against human HT1080 cells after 96 hrs by MTT assay; format: functional, cell-based; conditions: HT-1080, 96 h
[18] = tested on: A-375; experiment: Antiproliferative activity against human A375 cells after 96 hrs by MTT assay; format: functional, cell-based; conditions: A-375, 96 h
[19] = tested on: NCI-N87; experiment: Antiproliferative activity against human NCI-N87 cells after 96 hrs by MTT assay; format: functional, cell-based; conditions: NCI-N87, 96 h
[20] = tested on: PANC-1; experiment: Antiproliferative activity against human PANC1 cells after 96 hrs by MTT assay; format: functional, cell-based; conditions: PANC-1, 96 h
[21] = Metal chelating activity of the compound assessed as ferrous ion complex formation in doble-distiled water by UV-vis spectrometry; format: functional
[22] = Metal chelating activity of the compound assessed as ferric ion complex formation in doble-distiled water by UV-vis spectrometry; format: functional
[23] = Metal chelating activity of the compound assessed as cobalt complex formation in doble-distiled water by UV-vis spectrometry; format: functional
[24] = Metal chelating activity of the compound assessed as zinc complex formation in doble-distiled water by UV-vis spectrometry; format: functional
[25] = Metal chelating activity of the compound assessed as manganese complex formation in doble-distiled water by UV-vis spectrometry; format: functional
[26] = tested on: A549; experiment: Antiproliferative activity against human A549 cells at 2 uM after 96 hrs by MTT assay in presence of ferrous ion; format: functional, cell-based
[27] = tested on: Bel-7402; experiment: Antiproliferative activity against human Bel7402 cells at 2 uM after 96 hrs by MTT assay in presence of ferrous ion; format: functional, cell-based
[28] = tested on: HepG2; experiment: Antiproliferative activity against human HepG2 cells at 2 uM after 96 hrs by MTT assay in presence of ferrous ion; format: functional, cell-based
[29] = tested on: HeLa; experiment: Antiproliferative activity against human HeLa cells at 2 uM after 96 hrs by MTT assay in presence of ferrous ion; format: functional, cell-based
[30] = tested on: MCF7; experiment: Antiproliferative activity against human MCF7 cells at 2 uM after 96 hrs by MTT assay in presence of ferrous ion; format: functional, cell-based
[31] = tested on: Jurkat; experiment: Antiproliferative activity against human Jurkat cells at 2 uM after 96 hrs by MTT assay in presence of ferrous ion; format: functional, cell-based
[32] = tested on: HT-1080; experiment: Antiproliferative activity against human HT1080 cells at 2 uM after 96 hrs by MTT assay in presence of ferrous ion; format: functional, cell-based
[33] = tested on: A-375; experiment: Antiproliferative activity against human A375 cells at 2 uM after 96 hrs by MTT assay in presence of ferrous ion; format: functional, cell-based
[34] = tested on: NCI-N87; experiment: Antiproliferative activity against human NCI-N87 cells at 2 uM after 96 hrs by MTT assay in presence of ferrous ion; format: functional, cell-based
[35] = tested on: PANC-1; experiment: Antiproliferative activity against human PANC1 cells at 2 uM after 96 hrs by MTT assay in presence of ferrous ion; format: functional, cell-based
[36] = tested on: A549; experiment: Antiproliferative activity against human A549 cells at 2 uM after 96 hrs by MTT assay in presence of ferric ion; format: functional, cell-based
[37] = tested on: Bel-7402; experiment: Antiproliferative activity against human Bel7402 cells at 2 uM after 96 hrs by MTT assay in presence of ferric ion; format: functional, cell-based
[38] = tested on: HepG2; experiment: Antiproliferative activity against human HepG2 cells at 2 uM after 96 hrs by MTT assay in presence of ferric ion; format: functional, cell-based

- IC50 [11]: 1920 nM
- IC50 [12]: 900 nM
- IC50 [13]: 2000 nM
- IC50 [14]: 1440 nM
- IC50 [15]: 2000 nM
- IC50 [16]: 1400 nM
- IC50 [17]: 1360 nM
- IC50 [18]: 3500 nM
- IC50 [20]: 5950 nM
SMILES: Cc1cc2c(cc(O)c1=O)[C@@]13CCCC(C)(C)[C@@H]1C[C@@H]2OC3 [MILTIPOLONE]
- Activity [1]: inactive
- Activity [2]: inactive
- Activity [3]: inactive
- Activity [4]: inactive
- Activity [5]: inactive
- Activity [6]: inactive
- Activity [7]: inactive
- Activity [8]: inactive
- Activity [9]: inactive
- IC50 [10]: 20000 nM
- IC50 [19]: 1600 nM
- Activity [21]: Active
- Activity [22]: Active
- Activity [23]: Active
- Activity [24]: Active
- Activity [25]: Active
- Activity [26]: inactive
- Activity [27]: inactive
- Activity [28]: inactive
- Activity [29]: inactive
- Activity [30]: inactive
- Activity [31]: inactive
- Activity [32]: inactive
- Activity [33]: inactive
- Activity [34]: inactive
- Activity [35]: inactive
- Activity [36]: Active
- Activity [37]: Active
- Activity [38]: Active
